ChEMBL document CHEMBL4138309, “Discovery of β-Adrenergic Receptors Blocker-Carbonic Anhydrase Inhibitor Hybrids for Multitargeted Antiglaucoma Therapy” (J Med Chem, 2018)
Active and inactive are the calls of the source. The calls are words filed in the database; no cut-off is given here.

Experiments:
Oryctolagus cuniculus [1] = assay: Anti-glaucoma activity in hypertonic saline-induced hypertensive New Zealand albino rabbit model assessed as decrease in intraocular pressure at 1% instilled into eye vitreous measured at 60 mins post administration by pneumatonometric analysis relative to DRZ + timolol (1% + 0.25%); format: functional, organism-based
[2] = target: Beta-2 adrenergic receptor (Homo sapiens, UniProt P07550); assay: Displacement of [3H]-CGP12177 from human beta2 ADR expressed in HEK293T cell membrane after 90 mins by scintillation counting
Oryctolagus cuniculus [3] = assay: Anti-glaucoma activity in hypertonic saline-induced hypertensive New Zealand albino rabbit model assessed as decrease in intraocular pressure at 1% instilled into eye vitreous measured at 4 hrs post administration by pneumatonometric analysis; format: functional
Carbonic anhydrase 9 = Carbonic anhydrase 9 (Homo sapiens, UniProt Q16790)
[4] = target: Beta-1 adrenergic receptor (Homo sapiens, UniProt P08588); assay: biochemical
Oryctolagus cuniculus [5] = assay: Anti-glaucoma activity in hypertonic saline-induced hypertensive New Zealand albino rabbit model assessed as decrease in intraocular pressure at 0.25% instilled into eye vitreous measured at 2 hrs post administration by pneumatonometric analysis; format: functional
Oryctolagus cuniculus [6] = assay: Anti-glaucoma activity in hypertonic saline-induced hypertensive New Zealand albino rabbit model assessed as decrease in intraocular pressure at 0.25% instilled into eye vitreous measured at 60 mins post administration by pneumatonometric analysis; format: functional
Oryctolagus cuniculus [7] = assay: Anti-glaucoma activity in hypertonic saline-induced hypertensive New Zealand albino rabbit model assessed as decrease in intraocular pressure at 0.25% instilled into eye vitreous measured at 4 hrs post administration by pneumatonometric analysis; format: functional, organism-based
Oryctolagus cuniculus [8] = assay: Anti-glaucoma activity in hypertonic saline-induced hypertensive New Zealand albino rabbit model assessed as decrease in intraocular pressure at 0.25% instilled into eye vitreous along with 1% DRZ measured at 4 hrs post administration by pneumatonometric analysis; format: functional, organism-based
Oryctolagus cuniculus [9] = assay: Anti-glaucoma activity in hypertonic saline-induced hypertensive New Zealand albino rabbit model assessed as decrease in intraocular pressure at 0.25% instilled into eye vitreous along with 1% DRZ measured at 2 hrs post administration by pneumatonometric analysis; format: functional

Beta-1 adrenergic receptor, sequence (P08588 whole entry): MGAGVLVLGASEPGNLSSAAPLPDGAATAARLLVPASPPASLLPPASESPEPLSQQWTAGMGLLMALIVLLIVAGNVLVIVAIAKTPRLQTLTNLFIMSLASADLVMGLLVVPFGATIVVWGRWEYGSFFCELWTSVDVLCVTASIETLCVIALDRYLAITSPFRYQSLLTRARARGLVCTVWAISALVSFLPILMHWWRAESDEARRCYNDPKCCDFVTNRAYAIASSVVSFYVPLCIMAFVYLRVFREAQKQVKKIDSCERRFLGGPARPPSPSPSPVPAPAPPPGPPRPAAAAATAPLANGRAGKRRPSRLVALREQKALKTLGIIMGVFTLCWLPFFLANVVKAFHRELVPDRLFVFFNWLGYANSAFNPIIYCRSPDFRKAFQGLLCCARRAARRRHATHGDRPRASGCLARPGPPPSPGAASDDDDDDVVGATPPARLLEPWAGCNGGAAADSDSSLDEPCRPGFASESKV
Beta-2 adrenergic receptor, sequence (P07550 whole entry): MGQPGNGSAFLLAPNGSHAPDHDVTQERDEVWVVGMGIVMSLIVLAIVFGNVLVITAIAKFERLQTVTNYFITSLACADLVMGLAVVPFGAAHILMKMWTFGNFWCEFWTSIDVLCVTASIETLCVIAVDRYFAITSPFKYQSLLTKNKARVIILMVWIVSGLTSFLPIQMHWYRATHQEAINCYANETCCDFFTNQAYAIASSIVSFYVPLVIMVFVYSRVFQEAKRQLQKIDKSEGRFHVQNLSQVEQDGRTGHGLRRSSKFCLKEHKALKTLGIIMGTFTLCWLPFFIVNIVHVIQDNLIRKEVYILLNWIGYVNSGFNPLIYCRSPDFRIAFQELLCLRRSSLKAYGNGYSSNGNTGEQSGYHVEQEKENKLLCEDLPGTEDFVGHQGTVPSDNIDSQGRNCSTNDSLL

Cl.NS(=O)(=O)c1ccc(CCNC(=O)c2ccc(OCC(O)CN3CCOCC3)cc2)cc1 (stereo unspecified)
Activity (Oryctolagus cuniculus [1]): Active | Ki [2]: > 100 µM | Activity (Oryctolagus cuniculus [3]): 3.25 - 3.67 mmHg | Ki (Carbonic anhydrase 9): 0.007 µM | Ki [4]: > 100 µM

CCNCC(O)COc1ccc(C(=O)NCCc2ccc(S(N)(=O)=O)cc2)cc1 (stereo unspecified)
Ki [2]: > 100 µM | Ki (Carbonic anhydrase 9): 0.0221 µM | Ki [4]: > 100 µM

CNCC(O)COc1ccc(S(=O)(=O)NC(C)C)cc1.Cl (stereo unspecified)
Activity (Oryctolagus cuniculus [1]): Active | Ki [2]: 31.6 µM | Activity (Oryctolagus cuniculus [3]): 3.25 - 3.67 mmHg | Ki (Carbonic anhydrase 9): 0.0476 µM | Ki [4]: 10.5 µM

CNCC(O)COc1ccc(S(N)(=O)=O)cc1 (stereo unspecified)
Ki [2]: > 100 µM | Ki (Carbonic anhydrase 9): 0.0234 µM | Ki [4]: > 100 µM

CC(C)N(CC(O)COc1ccc(C(=O)NCCc2ccc(S(N)(=O)=O)cc2)cc1)C(C)C (stereo unspecified)
Ki [2]: > 100 µM | Ki (Carbonic anhydrase 9): 0.006 µM | Ki [4]: > 100 µM

CNCC(O)COc1ccc(S(=O)(=O)NC(C)C(C)C)cc1 (stereo unspecified)
Ki [2]: 30.2 µM | Ki (Carbonic anhydrase 9): 0.108 µM | Ki [4]: 15.5 µM

CC(C)NCC(O)COc1ccc(C(=O)NCCc2ccc(S(N)(=O)=O)cc2)cc1 (stereo unspecified)
Ki [2]: > 100 µM | Ki (Carbonic anhydrase 9): 0.0618 µM | Ki [4]: > 100 µM

NS(=O)(=O)c1ccc(CCNC(=O)c2ccc(OCC(O)CNCc3ccccc3)cc2)cc1 (stereo unspecified)
Ki [2]: > 100 µM | Ki (Carbonic anhydrase 9): 0.0747 µM | Ki [4]: > 100 µM

CNCC(O)COc1ccc(S(=O)(=O)NC(C)(C)C)cc1.Cl (stereo unspecified)
Activity (Oryctolagus cuniculus [1]): Active | Ki [2]: 5.01 µM | Activity (Oryctolagus cuniculus [3]): 3.25 - 3.67 mmHg | Ki (Carbonic anhydrase 9): 0.0954 µM | Ki [4]: 13.5 µM

NS(=O)(=O)c1ccc(CCNC(=O)c2ccc(OCC(O)CNCCO)cc2)cc1 (stereo unspecified)
Ki [2]: > 100 µM | Ki (Carbonic anhydrase 9): 0.0058 µM | Ki [4]: > 100 µM

CNCC(O)COc1ccc(C(=O)NCCc2ccc(S(N)(=O)=O)cc2)cc1 (stereo unspecified)
Ki [2]: > 100 µM | Ki (Carbonic anhydrase 9): 0.0017 µM | Ki [4]: > 100 µM

CNCC(O)COc1ccc(S(=O)(=O)N2CCN(C)CC2)cc1 (stereo unspecified)
Ki [2]: > 100 µM | Ki (Carbonic anhydrase 9): 0.127 µM | Ki [4]: > 100 µM

CNCC(O)COc1ccc(S(=O)(=O)NCCOc2ccccc2)cc1 (stereo unspecified)
Ki [2]: 28.2 µM | Ki (Carbonic anhydrase 9): 0.0846 µM | Ki [4]: 6.61 µM

CCCNCC(O)COc1ccc(C(=O)NCCc2ccc(S(N)(=O)=O)cc2)cc1 (stereo unspecified)
Ki [2]: > 100 µM | Ki (Carbonic anhydrase 9): 0.0074 µM | Ki [4]: > 100 µM

CNCC(O)COc1ccc(S(=O)(=O)NCc2ccccc2)cc1 (stereo unspecified)
Ki [2]: > 100 µM | Ki (Carbonic anhydrase 9): 0.0931 µM | Ki [4]: 79.4 µM

CC(C)(C)NCC(O)COc1ccc(C(=O)NCCc2ccc(S(N)(=O)=O)cc2)cc1 (stereo unspecified)
Ki [2]: > 100 µM | Ki (Carbonic anhydrase 9): 0.0831 µM | Ki [4]: > 100 µM

CC(C)(C)NC[C@H](O)COc1nsnc1N1CCOCC1 [TIMOLOL]
Activity (Oryctolagus cuniculus [5]): 3.54 mmHg | Activity (Oryctolagus cuniculus [6]): 5.73 mmHg | Activity (Oryctolagus cuniculus [7]): inactive | Activity (Oryctolagus cuniculus [8]): inactive | Activity (Oryctolagus cuniculus [9]): 5 mmHg

CCC(C)NCC(O)COc1ccc(C(=O)NCCc2ccc(S(N)(=O)=O)cc2)cc1 (stereo unspecified)
Ki [2]: > 100 µM | Ki (Carbonic anhydrase 9): 0.0536 µM | Ki [4]: > 100 µM

CNCC(O)COc1ccc(S(=O)(=O)NCCc2ccccc2)cc1 (stereo unspecified)
Activity (Oryctolagus cuniculus [1]): Active | Ki [2]: 39.8 µM | Ki (Carbonic anhydrase 9): 0.0592 µM | Ki [4]: 26.9 µM
